Source: patent US8785457B2 (Cellzome Limited, priority 2009, dated 2014)
Where two headings read alike, the source gives them in different places.

How the values were obtained:
[1] = tested on: S6RP serine-240/244 phosphorylation; experiment: In vitro Phospho-S6 cellular assay (pS6RP S240/244) in HEK293T/17 cells; format: cell-based; settings: Homo sapiens, 2 hours, read-out: pS6 IC50
Summary of the method: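 Compounds were tested at eight concentrations on adhered HEK293T/17 cells for 2 h at 37 °C (2% FCS, 0.1% DMSO), at 80,000 cells/well for pAkt S473 and 40,000 for pS6RP S240/244. Lysates were captured on phospho-specific antibody MSD plates with Sulfo-Tag detection. Values came from nonlinear variable-slope regression.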

PI3K delta (PI3 Kd) = molecular target: T1, PI3K delta (PI3 Kd) (Homo sapiens, UniProt O00329); experiment: kinobeads assay, PI3K delta; format: binding; settings: kinobeads assay, read-out: Inhibition values (IC50) PI3Kd
T1 construct: endogenous in cells; host or cells: Jurkat, clone E6-1 (ATCC TIB-152) cell lysate
T1 sequence (O00329 whole entry): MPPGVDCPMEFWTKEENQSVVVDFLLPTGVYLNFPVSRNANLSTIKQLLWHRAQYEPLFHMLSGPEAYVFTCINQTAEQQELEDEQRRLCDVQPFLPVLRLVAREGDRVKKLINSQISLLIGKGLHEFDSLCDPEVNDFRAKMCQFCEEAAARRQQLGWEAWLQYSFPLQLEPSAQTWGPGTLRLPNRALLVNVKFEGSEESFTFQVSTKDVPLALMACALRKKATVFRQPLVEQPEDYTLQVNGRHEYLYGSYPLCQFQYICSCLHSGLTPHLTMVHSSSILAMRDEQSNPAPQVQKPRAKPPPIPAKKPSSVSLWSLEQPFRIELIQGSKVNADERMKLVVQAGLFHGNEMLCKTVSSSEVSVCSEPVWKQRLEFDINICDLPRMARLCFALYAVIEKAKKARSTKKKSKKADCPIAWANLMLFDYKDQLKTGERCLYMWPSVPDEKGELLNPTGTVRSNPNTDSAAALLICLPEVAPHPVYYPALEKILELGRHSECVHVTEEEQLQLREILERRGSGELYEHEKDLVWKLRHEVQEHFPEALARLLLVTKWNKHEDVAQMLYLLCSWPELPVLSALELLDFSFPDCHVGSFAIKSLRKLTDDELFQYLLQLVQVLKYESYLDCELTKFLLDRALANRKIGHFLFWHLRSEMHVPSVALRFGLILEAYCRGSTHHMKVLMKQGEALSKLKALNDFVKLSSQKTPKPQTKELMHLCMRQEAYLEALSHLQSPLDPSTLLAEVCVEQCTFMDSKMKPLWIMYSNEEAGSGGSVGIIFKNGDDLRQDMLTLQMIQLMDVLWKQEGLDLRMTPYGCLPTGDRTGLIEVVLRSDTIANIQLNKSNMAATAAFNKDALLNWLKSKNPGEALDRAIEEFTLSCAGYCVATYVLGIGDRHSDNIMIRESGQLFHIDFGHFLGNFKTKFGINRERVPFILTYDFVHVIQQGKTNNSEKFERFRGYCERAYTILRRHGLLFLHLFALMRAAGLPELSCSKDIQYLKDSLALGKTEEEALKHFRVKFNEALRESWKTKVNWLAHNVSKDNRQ
T1 sequence (P27986 whole entry partner): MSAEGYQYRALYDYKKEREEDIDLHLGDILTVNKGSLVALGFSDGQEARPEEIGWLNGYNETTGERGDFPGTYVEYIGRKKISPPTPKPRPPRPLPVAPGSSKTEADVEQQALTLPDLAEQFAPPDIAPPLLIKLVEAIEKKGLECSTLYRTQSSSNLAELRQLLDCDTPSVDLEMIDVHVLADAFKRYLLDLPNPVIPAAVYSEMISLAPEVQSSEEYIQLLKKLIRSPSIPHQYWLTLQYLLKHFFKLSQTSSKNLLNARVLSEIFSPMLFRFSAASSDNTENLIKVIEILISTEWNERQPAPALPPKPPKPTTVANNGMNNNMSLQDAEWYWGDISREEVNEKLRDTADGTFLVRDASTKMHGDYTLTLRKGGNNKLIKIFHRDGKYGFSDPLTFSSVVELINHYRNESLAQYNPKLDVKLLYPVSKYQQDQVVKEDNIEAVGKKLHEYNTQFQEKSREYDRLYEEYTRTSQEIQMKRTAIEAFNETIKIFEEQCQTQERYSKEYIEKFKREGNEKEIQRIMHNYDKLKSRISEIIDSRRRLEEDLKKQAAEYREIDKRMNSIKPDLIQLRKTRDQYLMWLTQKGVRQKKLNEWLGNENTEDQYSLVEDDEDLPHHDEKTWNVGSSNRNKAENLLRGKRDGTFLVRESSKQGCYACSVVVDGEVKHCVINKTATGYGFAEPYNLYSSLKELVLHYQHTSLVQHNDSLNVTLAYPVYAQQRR
Summary of the method: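 IC50 values came from dose-response curves after test compound (1:3 series) competed with an immobilized phenylmorpholin-chromen affinity matrix for kinases in Jurkat lysate at 5 mg/mL protein. Eluted captured DNA-PK and PI3Kδ were measured by specific-antibody dot blot and infrared imaging. Buffer was Tris pH 7.4, NP40, MgCl2, NaCl, vanadate, DTT, NaF.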

Row | SMILES | IC50 [1] | IC50 (PI3K delta (PI3 Kd); Table 6) | IC50 (PI3K delta (PI3 Kd); Table 4)
1 | CCNC(=O)Nc1ccc(-c2nc3c(c(N4CCOC[C@@H]4C)n2)CN(C(=O)OC)C3)cc1 [Example 89, (S)-methyl 2-(4-(3-ethylureido)phenyl)-4-(3-methylmorpholino)-5H-pyrrolo[3,4-d]pyrimidine-6(7H)-carboxylate] | 82 nM | > 10000 nM | 
2 | CCNC(=O)Nc1ccc(-c2nc3c(c(N4CCOC[C@@H]4C)n2)CCN(C(=O)OC)C3)cc1 [Example 81, (S)-methyl 2-(4-(3-ethylureido)phenyl)-4-(3-methylmorpholino)-5,6-dihydropyrido[3,4-d]pyrimidine-7(8H)-carboxylate] | 47 nM | > 10000 nM | 
3 | C[C@H]1COCCN1c1nc(-c2ccc(NC(=O)NC3CC3)cc2)nc2c1CCN(C(=O)C(C)(C)C)C2 [Example 64, (S)-1-cyclopropyl-3-(4-(4-(3-methylmorpholino)-7-pivaloyl-5,6,7,8-tetrahydropyrido[3,4-d]pyrimidin-2-yl)phenyl)urea] | 30 nM | > 10000 nM | 
4 | CC(=O)N1CCc2c(nc(-c3ccc(NC(=O)NC4CC4)cc3)nc2N2CCOC[C@@H]2C)C1 [Example 62, (S)-1-(4-(7-acetyl-4-(3-methylmorpholino)-5,6,7,8-tetrahydropyrido[3,4-d]pyrimidin-2-yl)phenyl)-3-cyclopropylurea] | 49 nM | > 10000 nM | > 10000 nM
5 | CCNC(=O)Nc1ccc(-c2nc3c(c(N4CCOCC4)n2)CN(C)C3)cc1 [Example 69, 1-Ethyl-3-(4-(6-methyl-4-morpholino-6,7-dihydro-5H-pyrrolo[3,4-d]pyrimidin-2-yl)phenyl)urea] | 208 nM | > 10000 nM | 
6 | C[C@H]1COCCN1c1nc(-c2ccc(NC(=O)NC3CC3)cc2)nc2c1CN(CC(F)(F)F)C2 [Example 101, (S)-1-cyclopropyl-3-(4-(4-(3-methylmorpholino)-6-(2,2,2-trifluoroethyl)-6,7-dihydro-5H-pyrrolo[3,4-d]pyrimidin-2-yl)phenyl)urea] | 252 nM | > 10000 nM | 
7 | CCNC(=O)Nc1ccc(-c2nc3c(c(N4CCOCC4)n2)CCN(C(=O)OCC)C3)cc1 [Example 96, ethyl 2-(4-(3-ethylureido)phenyl)-4-morpholino-5,6-dihydropyrido[3,4-d]pyrimidine-7(8H)-carboxylate] | 50 nM | > 10000 nM | 
8 | CCNC(=O)Nc1ccc(-c2nc3c(c(N4CCOC[C@@H]4C)n2)CCN(C(=O)OCC)C3)cc1 [Example 77, (S)-ethyl 2-(4-(3-ethylureido)phenyl)-4-(3-methylmorpholino)-5,6-dihydropyrido[3,4-d]pyrimidine-7(8H)-carboxylate] | 38 nM | > 10000 nM | 
9 | CCNC(=O)Nc1ccc(-c2nc3c(c(N4CCOC[C@@H]4C)n2)CN(C(=O)OCC)C3)c(F)c1 [Example 113, (S)-ethyl-2-(4-(3-ethylureido)-2-fluorophenyl)-4-(3-methylmorpholino)-5H-pyrrolo[3,4-d]pyrimidine-6(7H)-carboxylate] | 77 nM | > 10000 nM | 
10 | CCNC(=O)Nc1ccc(-c2nc3c(c(N4CCOC[C@@H]4C)n2)CN(C)C3)cc1F [Example 85, (S)-1-ethyl-3-(2-fluoro-4-(6-methyl-4-(3-methylmorpholino)-6,7-dihydro-5H-pyrrolo[3,4-d]pyrimidin-2-yl)phenyl)urea] | 873 nM | > 10000 nM | 
11 | C[C@H]1COCCN1c1nc(-c2ccc(NC(=O)NCCO)cc2)nc2c1CN(C)C2 [Example 73, (S)-1-(2-hydroxyethyl)-3-(4-(6-methyl-4-(3-methylmorpholino)-6,7-dihydro-5H-pyrrolo[3,4-d]pyrimidin-2-yl)phenyl)urea] | 425 nM | 1000 to 10000 nM | 
12 | CCNC(=O)Nc1ccc(-c2nc3c(c(N4CCOC[C@@H]4C)n2)CCN(C(=O)NCC)C3)cc1 [Example 87, (S)—N-ethyl-2-(4-(3-ethylureido)phenyl)-4-(3-methylmorpholino)-5,6-dihydropyrido[3,4-d]pyrimidine-7(8H)-carboxamide] | 108 nM | > 10000 nM | 
13 | CCNC(=O)Nc1ccc(-c2nc3c(c(N4CCOCC4)n2)CN(C(=O)C(C)(C)C)C3)cc1 [Example 100, 1-ethyl-3-(4-(4-morpholino-6-pivaloyl-6,7-dihydro-5H-pyrrolo[3,4-d]pyrimidin-2-yl)phenyl)urea] | 202 nM | > 10000 nM | 
14 | CCOC(=O)N1Cc2nc(-c3ccc(NC(=O)NCCF)cc3)nc(N3CCOC[C@@H]3C)c2C1 [Example 120, (S)-ethyl 2-(4-(3-(2-fluoroethyl)ureido)phenyl)-4-(3-methylmorpholino)-5H-pyrrolo[3,4-d]pyrimidine-6(7H)-carboxylate] | 25 nM | > 10000 nM | 

The next lines start with the values.

Row | IC50 [1] | IC50 (PI3K delta (PI3 Kd); Table 6) | IC50 (PI3K delta (PI3 Kd); Table 4) | SMILES
15 | 129 nM | > 10000 nM |  | Cc1cc(NC(=O)Nc2ccc(-c3nc4c(c(N5CCOC[C@@H]5C)n3)CN(C)C4)cc2)no1 [Example 72, (S)-1-(4-(6-methyl-4-(3-methylmorpholino)-6,7-dihydro-5H-pyrrolo[3,4-d]pyrimidin-2-yl)phenyl)-3-(5-methylisoxazol-3-yl)urea]
16 | 935 nM | > 10000 nM |  | CCNC(=O)Nc1cc(F)c(-c2nc3c(c(N4CCOC[C@@H]4C)n2)CCN(C)C3)cc1F [Example 108, (S)-1-(2,5-difluoro-4-(7-methyl-4-(3-methylmorpholino)-5,6,7,8-tetrahydropyrido[3,4-d]pyrimidin-2-yl)phenyl)-3-ethylurea]
17 | 390 nM | > 10000 nM |  | CCOC(=O)N1Cc2nc(-c3ccc(NC(=O)NCCO)c(F)c3)nc(N3CCOC[C@@H]3C)c2C1 [Example 104, (S)-ethyl-2-(3-fluoro-4-(3-(2-hydroxyethyl)ureido)phenyl)-4-(3-methylmorpholino)-5H-pyrrolo[3,4-d]pyrimidine-6(7H)-carboxylate]
18 | 414 nM | > 10000 nM |  | CCOC(=O)N1Cc2nc(-c3ccc(NC(=O)NC4CC4)c(F)c3)nc(N3CCOC[C@@H]3C)c2C1 [Example 105, (S)-ethyl 2-(4-(3-cyclopropylureido)-3-fluorophenyl)-4-(3-methylmorpholino)-5H-pyrrolo[3,4-d]pyrimidine-6(7H)-carboxylate]
19 | 37 nM | > 10000 nM | > 10000 nM | C[C@H]1COCCN1c1nc(-c2ccc(NC(=O)NC3CC3)cc2)nc2c1CCN(C(=O)C1CC1)C2 [Example 60, (S)-1-(4-(7-(cyclopropanecarbonyl)-4-(3-methylmorpholino)-5,6,7,8-tetrahydropyrido[3,4-d]pyrimidin-2-yl)phenyl)-3-cyclopropylurea]
20 | 159 nM | > 10000 nM |  | CCNC(=O)Nc1ccc(-c2nc3c(c(N4CCOC[C@@H]4C)n2)CN(C(=O)OCC)CC3)cc1 [Example 107, (S)-ethyl 2-(4-(3-ethylureido)phenyl)-4-(3-methylmorpholino)-7,8-dihydropyrido[4,3-d]pyrimidine-6(5H)-carboxylate]
21 | 207 nM | > 10000 nM |  | CCNC(=O)Nc1ccc(-c2nc3c(c(N4CCOC[C@@H]4C)n2)CN(C(=O)OCC)C3)cc1F [Example 103, (S)-ethyl-2-(4-(3-ethylureido)-3-fluorophenyl)-4-(3-methylmorpholino)-5H-pyrrolo[3,4-d]pyrimidine-6(7H)-carboxylate]
